Measured values: PMC10778758, “Dithioethanol (DTE)-Conjugated Deoxyribose Cyclic Dinucleotide Prodrugs (DTE-dCDNs) as STING Agonist” (International Journal of Molecular Sciences, 2023)

Key:
THP-1 cells = assay: Western blot of STING/TBK1/IRF3 phosphorylation in THP-1 cells; assay type: cell-based; conditions: 4 h
Protocol: Western blotting. THP-1 cells (8 × 10^5 cells/well) were seeded into a 6-well plate and treated with prodrug 9, 2′,3′-cGAMP, 3′,3′-c-di-dAMP, and ADU-S100 for 4 h. The total proteins from the cells were extracted via cold RIPA buffer supplemented with protease inhibitors. Cell lysates were harvested via 1 × SDS-PAGE sample loading buffer (Cat. code: P0015, Beyotime, Shanghai, China), boiled at 100 °C for 10 min. Cell lysates were run on 10% SDS-PAGE gels and transferred onto NC membranes. The membranes were blocked with 5% BSA for 1 h and incubated with primary antibodies against STING, phospho-STING (Ser366), TBK1, phospho-TBK1 (Ser172), IRF3, phospho-IRF3 (Ser386), or β-actin overnight at 4 °C. Horseradish peroxidase-conjugated secondary antibodies were used as secondary antibodies. Finally, the membrane was detected using enhanced chemiluminescence for imaging.
Figure 9 Prodrug 9 activated the STING signalling pathway through stimulating the phosphorylation of STING, TBK1, and IRF3. Prodrug 9 (10 μM), 2′,3′-cGAMP (100 μM), 3′,3′-c-di-dAMP (100 μM), and ADU-S100 (10 μM) were used to treat THP-1 cells for 4 h, and the levels of total STING, phospho-STING, total TBK1, phospho-TBK1, total IRF3, phospho-IRF3, and β-actin were detected via Western blotting. The raw images of western blots were also placed in pages S16–S22 in Supplementary Materials.
Figure S4. Relative quantification of phospho-STING, phospho-TBK1, phospho-IRF3. Prodrug 9 (10
μM), 2′,3′-cGAMP (100 μM), 3′,3′-c-di-dAMP (100 μM) and ADU-S100 (10 μM) were used to treat
THP-1 cells for 4 h, and the levels of total STING, phospho-STING, total TBK1, phospho-TBK1, total
IRF3, phospho-IRF3, and β-actin were assessed by western blotting. […]

[1] = Release of parent dCDN from prodrug 9 in cell lysates (HPLC); assay type: in vitro ADME; conditions: 100 μM prodrug, 37 °C
Protocol: To analyze the reduction dependency, we performed the in vitro cleavage test by incubating prodrug 9 with a reductive substance such as GSH or DTT and cell lysates at 37 °C and then determined the change with HPLC. […] As the reductive substance or cell lysates were added, the peak for prodrug 9 disappeared and the new peaks at 1.2 min appeared in 0.5 h and 2 h, respectively. The released parent dCDN was also confirmed with 3′,3′-c-di-dAMP through UPLC-MS (Figure S1).
Prodrug 9 release parent drug initiated by cell lysates, DTT, and GSH. HEK 293T cells were plated in a 6-well plate at a density of 10^6 cell per well. After 48 h, the culture media was removed and washed with 500 μL PBS buffer. Cells were collected into 1.5 mL microtubes. An amount of 200 μL weak RIPA lysis buffer containing 1 mM protease inhibitor PMSF (LEAGENE, Trenton, NJ, USA) was added to each tube for 30 min. After centrifugation at 13,000 rpm for 10 min, the supernatant (180 μL) was transferred into a new tube. An amount of 100 μM prodrug 9 was added into the cell lysate (60 μL) in an air-bath incubator at 37 °C. […]
Figure 3 Parent dCDNs release in GSH, DTT (a), and cell lysates (b). An amount of 100 μM prodrug 9 was added into the 10 mM GSH, 10 mM DTT, and cell lysates for various times (0.5 h and 2 h) at 37 °C and analyzed with HPLC (Agilent 1260, Santa Clara, CA, USA).

[2] = In vitro serum stability assay in 20% fetal bovine serum; assay type: in vitro ADME; conditions: bovine, 20% fetal bovine serum, pH 7.4, 20% FBS, 37 °C, read-out: T1/2 (half-life period) (converted)
Protocol: In vitro serum stability assay. Each compound (100 μM) was incubated at 37 °C in the reaction buffer including 20% fetal bovine serum (FBS, GIBCO, Thermo Fisher Scientific, Waltham, MA, USA), 10 mM PBS (pH 7.4), and 1 mM MgCl2. At various times, aliquots of the reaction mixture were collected and stopped by adding 50 μL MeCN and diluted with 50 μL water. The reaction mixture was then centrifuged at 10,000 rpm for 5 min, leaving 100 μL supernatant for the HPLC assay. An amount of 10 μL of each aliquot was injected directly into HPLC (Agilent 1260 Infinity HPLC equipped with a UV detector; column Agilent ZORABX SB-C18 5 μm [4.6 × 150 mm; detection at 254 nm; column temperature 25 °C] for analysis. Amounts of 10 mM TEAA buffer (solvent A) and MeCN (solvent B) were used as the mobile phase with a flow rate of 1 mL/min. The gradient was set as the following: 0–2 min: 98% A/2% B; 2–6 min: 98% A/2% B to 100% B; 6–10 min: 100% B; 10–13 min: 100% B to 98% A/2% B; 13–15 min: 98% A/2% B. The % remaining of the test compounds after incubation in the serum was then calculated.
Figure 4 Parent dCDN of DTE-dCDN prodrug 9 retained a high serum stability. The serum stability analysis of (a) prodrug 9, (b) 3′,3′-c-di-dAMP, (c) 2′,3′-cGAMP and (d) ADU-S100 were determined in 20% FBS. Each compound (100 μM) was incubated in 20% FBS at 37 °C. At various times (0, 2, 4, 8, 12, 24, 48, 72 h), aliquots of the reaction mixture were analyzed with HPLC at 254 nm. The % remaining of test compounds after incubation in serum was calculated.

[3] = THP-1, prodrug 9 10 μM vs 2′,3′-cGAMP 100 μM
[4] = THP-1, prodrug 9 10 μM vs 3′,3′-c-di-dAMP 100 μM
[5] = THP-1, prodrug 9 10 μM vs ADU-S100 10 μM

Nc1ncnc2c1ncn2C1CC2OP(=O)(OCCSSc3ccccn3)OCC3OC(n4cnc5c(N)ncnc54)CC3OP(=O)(OCCSSc3ccccn3)OCC2O1 (centres unmarked) [prodrug 9]
relative expression of phospho-IRF3, fold compared to 2′,3′-cGAMP (THP-1 cells; [3]): 19.8 fold
relative expression of phospho-STING, fold compared to 2′,3′-cGAMP (THP-1 cells; [3]): 20.8 fold
relative expression of phospho-TBK1, fold compared to 2′,3′-cGAMP (THP-1 cells; [3]): 6.9 fold
relative expression of phospho-IRF3, fold compared to 3′,3′-c-di-dAMP (THP-1 cells; [4]): 6.5 fold
relative expression of phospho-STING, fold compared to 3′,3′-c-di-dAMP (THP-1 cells; [4]): 5.5 fold
relative expression of phospho-TBK1, fold compared to 3′,3′-c-di-dAMP (THP-1 cells; [4]): 3.6 fold
relative expression of phospho-IRF3, fold compared to ADU-S100 (THP-1 cells; [5]): 1.8 fold
relative expression of phospho-STING, fold compared to ADU-S100 (THP-1 cells; [5]): 1.6 fold
relative expression of phospho-TBK1, fold compared to ADU-S100 (THP-1 cells; [5]): 1.3 fold
time at which prodrug peak disappeared and parent dCDN peak appeared [1]: 2 h
half-life at 100 μM [2]: 1680 min
